From EP1948196B1, “USE OF TETRAORGANOSILICON COMPOUNDS” (Salama, Zoser B., priority 2005, dated 2007) come the findings set out here.

The IC50 is the midpoint of a concentration-inhibition curve.

For experiment [1], the system named is BxPC3 (pankreatisches Adenokarzinom). Put plainly: MTT test, triplicate, two-fold dilutions. Type of experiment: cell-based. The conditions noted are these: Homo sapiens. How it is done:
(§1) Die Silan wurden in Ethanol aufgelöst und in Zellkulturmedien in Konzentrationen von bis zu 500 µg/ml resuspendiert. Es wurden MTT Tests in dreifacher Ausführung durchgeführt, für welche doppelte Lösungen (7 Schritte) und colo205 (Kofon-Karzinom), BxPC3 (pankreatisches Adenokarzinom) sowie T47D (Brustkrebs) benutzt wurden.
On the technique in general: Tetrazolium assays rely on reduction of a dye to a coloured formazan, in cell work by metabolically active cells.

Experiment [2] relates to T47D (Brustkrebs). Put plainly: MTT test, triplicate, two-fold dilutions. The conditions noted are these: Homo sapiens, T47D, read-out: IC50 T47D. The experiment is classed as cell-based. On the procedure: as §1
For experiment [3], the system named is colo205 (Kofon-Karzinom). Briefly: MTT test, triplicate, two-fold dilutions. The conditions noted are these: Homo sapiens. The experiment is classed as cell-based. On the procedure:
as §1

Experiment [4] concerns Plattenepihtelkarzinomen oder Plasmozytomen. Put plainly: Effect against metastasis in rats. Type of experiment: in vivo. The conditions noted are these: in Ratten.
For experiment [5], the system named is Osteosarkome. Briefly: Effect on osteosarcomas.
The subject of experiment [6] is Rhino-Viren. Put plainly: Antiviral effect. The following applies: in particular as vesicles holding antisense constructs.
For experiment [7], the system named is Angiosarkome. Put plainly: Effect on angiosarcomas.
Experiment [8] concerns Angiosarkome. Briefly: Effect on angiosarcomas. This is another data set of the same source.
Experiment [9] relates to Seminome. Briefly: Effect on seminomas.
The subject of experiment [10] is Hepatitis B-Viren. Put plainly: Antiviral effect. The conditions noted are these: in particular as vesicles holding antisense constructs.
Where [11] appears, read: COLO 205, read-out: IC50 Colo205.
Setting [12] is: BXPC-3, up to 500 µg/ml, read-out: IC50 BxPC3.
Where [13] appears, read: COLO 205, up to 500 µg/ml, read-out: IC50 Colo205.

≈ marks a conversion by molar mass, not a printed value. Like-named read-outs stand apart in the source and are kept apart here. Numbered stars: 1 amine (or outer) side, 2 acyl side, 3 side chain; on linkers, the order of the positions; unused ones are H or OH. Bridge positions count the residues as written; N and C are the ends. Peptide text beside a SMILES is read from it. I, II: the chains in the order shown. X2 = c1ccc([Si](O[*:1])(O[*:2])c2ccccc2)cc1; OSiEt2O = CC[Si](CC)(O[*:1])O[*:2]

With `CCCCCCCCCCCCC(=O)O[Si](C)(C)OC(=O)CCCCCCCCCCCC` [Si 3, Di (tridecanoyloxy) dimethylsilan], the IC50 in [1] (BXPC-3, read-out: IC50 BxPC3) is 80 µg/mL (≈ 165 µM); in experiment [2], 80 µg/mL (≈ 165 µM); in [3] (setting [11]), 230 µg/mL (≈ 474 µM). In addition, the “Wirkung gegen die Metastasierung von Plattenepihtelkarzinomen oder Plasmozytomen” value in [4] is reported as “zeigen eine Wirkung”.

On to `CCCCCCCCCCCCCCC(=O)O[Si](C)(C)OC(=O)CCCCCCCCCCCCCC` [Di(pentadecanoyloxy)dimethylsilan], for which the “Wirkung gegen die Metastasierung von Plattenepihtelkarzinomen oder Plasmozytomen” value in experiment [4] is listed as “zeigen eine Wirkung”.

With `CC/C=C\C/C=C\C/C=C\CCCCCCCC(=O)O[Si](OC(=O)CCCCCCC/C=C\C/C=C\C/C=C\CC)(c1ccccc1)c1ccccc1` [Di(linolenoylooxy)diphenylsilan], the “Wirkung auf Osteosarkome” value in experiment [5] was “zeigen eine Wirkung”. In addition, in experiment [6], the “Wirkung gegen Rhino-Viren” value is “zeigen eine Wirkung”.

`CCCCCCCCCCCCCCCCC(=O)O[Si](C)(C)OC(=O)CCCCCCCCCCCCCCCC` [Di(heptadecanoyloxy)dimethylslan]: in [4], the “Wirkung gegen die Metastasierung von Plattenepihtelkarzinomen oder Plasmozytomen” value is given as “zeigen eine Wirkung”.

For the molecule `CCCCCCCCCCCCCCCCC(=O)O[Si](OC(=O)CCCCCCCCCCCCCCCC)(c1ccccc1)c1ccccc1` [Di(heptadecanoyloxy)diphenylsilan], the “Wirkung auf Osteosarkome” value in experiment [5] is “zeigen eine Wirkung”. Besides, the “Wirkung gegen Rhino-Viren” value in experiment [6] was “zeigen eine Wirkung”.

For `C[C@H](N)C(=O)N[C@@H](C)C(=O)N[C@@H](C)C(=O)N[C@@H](C)C(=O)N[C@@H](C)C(=O)N[C@@H](C)C(=O)N[C@@H](C)C(=O)N[C@@H](C)C(=O)N[C@@H](C)C(=O)N[C@@H](C)C(=O)O[Si](OC(=O)[C@H](C)NC(=O)[C@H](C)NC(=O)[C@H](C)NC(=O)[C@H](C)NC(=O)[C@H](C)NC(=O)[C@H](C)NC(=O)[C@H](C)NC(=O)[C@H](C)NC(=O)[C@H](C)NC(=O)[C@H](C)N)(c1ccccc1)c1ccccc1` [Diphenyl bis(decaalanyl)silylester], the “Wirkung gegen Angiosarkome” value in [7] is given as “zeigen eine Wirkung”.

With `CC[Si](CC)(OC(=O)CNC(=O)CNC(=O)CNC(=O)CNC(=O)CNC(=O)CN)OC(=O)CNC(=O)CNC(=O)CNC(=O)CNC(=O)CNC(=O)CN` [Diethyl bis(hexaglycyl)Silylester], the “Wirkung gegen Angiosarkome” value in experiment [7] is listed as “zeigen eine Wirkung”.

For the molecule `CC(C)[C@H](N)C(=O)N[C@H](C(=O)N[C@H](C(=O)N[C@H](C(=O)N[C@H](C(=O)N[C@H](C(=O)N[C@H](C(=O)N[C@H](C(=O)O[Si](OC(=O)[C@@H](NC(=O)[C@@H](NC(=O)[C@@H](NC(=O)[C@@H](NC(=O)[C@@H](NC(=O)[C@@H](NC(=O)[C@@H](NC(=O)[C@@H](N)C(C)C)C(C)C)C(C)C)C(C)C)C(C)C)C(C)C)C(C)C)C(C)C)(c1ccccc1)c1ccccc1)C(C)C)C(C)C)C(C)C)C(C)C)C(C)C)C(C)C)C(C)C` [Diphenyl bis(octavalyl)silylester] (I: H-VVVVVVVV / II: H-VVVVVVVV; linker I:C-II:C via X2), the “Wirkung gegen Angiosarkome” value in [7] is recorded as “zeigen eine Wirkung”.

As for `CC[Si](CC)(OC(=O)CNC(=O)CNC(=O)CNC(=O)CNC(=O)CNC(=O)CNC(=O)CNC(=O)CN)OC(=O)CNC(=O)CNC(=O)CNC(=O)CNC(=O)CNC(=O)CNC(=O)CNC(=O)CN` [Diethyl bis(octablycyl)silylester] (I: H-GGGGGGGG / II: H-GGGGGGGG; linker I:C-II:C via OSiEt2O), the “Wirkung gegen Angiosarkome” value in experiment [7] is “zeigen eine Wirkung”.

On to `CC(C)[C@H](N)C(=O)N[C@H](C(=O)N[C@H](C(=O)N[C@H](C(=O)N[C@H](C(=O)N[C@H](C(=O)N[C@H](C(=O)N[C@H](C(=O)N[C@H](C(=O)O[Si](OC(=O)[C@@H](NC(=O)[C@@H](NC(=O)[C@@H](NC(=O)[C@@H](NC(=O)[C@@H](NC(=O)[C@@H](NC(=O)[C@@H](NC(=O)[C@@H](NC(=O)[C@@H](N)C(C)C)C(C)C)C(C)C)C(C)C)C(C)C)C(C)C)C(C)C)C(C)C)C(C)C)(c1ccccc1)c1ccccc1)C(C)C)C(C)C)C(C)C)C(C)C)C(C)C)C(C)C)C(C)C)C(C)C` [Diphenyl bis(nonavalyl)silylester] (I: H-VVVVVVVVV / II: H-VVVVVVVVV; linker I:C-II:C via X2), for which, in experiment [7], the “Wirkung gegen Angiosarkome” value is listed as “zeigen eine Wirkung”.

For the molecule `CCCCCCCCC(=O)O[Si](CC)(CC)OC(=O)CCCCCCCC` [Di(nonanoyloxy)diethyisilan], the “Wirkung gegen die Metastasierung von Plattenepihtelkarzinomen oder Plasmozytomen” value in [4] was “zeigen eine Wirkung”.

`CCCCC/C=C\C/C=C\CCCCCCCC(=O)O[Si](OC(=O)CCCCCCC/C=C\C/C=C\CCCCC)(c1ccccc1)c1ccccc1` [Di (linoylooxy)diphenylsilan]: the “Wirkung auf Osteosarkome” value in experiment [5] is listed as “zeigen eine Wirkung”. The “Wirkung gegen Rhino-Viren” value in [6] is given as “zeigen eine Wirkung”.

As for `CC(C)[C@H](N)C(=O)N[C@H](C(=O)N[C@H](C(=O)N[C@H](C(=O)O[Si](OC(=O)[C@@H](NC(=O)[C@@H](NC(=O)[C@@H](NC(=O)[C@@H](N)C(C)C)C(C)C)C(C)C)C(C)C)(c1ccccc1)c1ccccc1)C(C)C)C(C)C)C(C)C` [Diphenyl bis(tetravalyl)silylester], the “Wirkung gegen Angiosarkome” value in experiment [7] is given as “zeigen eine Wirkung”.

As to `CCCCCCCCCCCCC(=O)O[Si](CCC)(CCC)OC(=O)CCCCCCCCCCCC` [Di(tridecanoyloxy)dipropylsilan], the “Wirkung gegen Angiosarkome” value in experiment [8] is recorded as “zeigen eine Wirkung”. Moreover, in experiment [9], the “Wirkung auf Seminome” value is on record as “zeigen eine Wirkung”. In addition, the “Wirkung gegen Hepatitis B-Viren” value in [10] is reported as “zeigen eine Wirkung”.

For `CCCCCCCCCCC(=O)O[Si](OC(=O)CCCCCCCCCC)(c1ccccc1)c1ccccc1` [Di(undecanoyloxy)diphenylsilan], in experiment [5], the “Wirkung auf Osteosarkome” value was “zeigen eine Wirkung”. The “Wirkung gegen Rhino-Viren” value in experiment [6] is given as “zeigen eine Wirkung”.

For the molecule `CCCCCCCCCCCC(=O)O[Si](CCC)(CCC)OC(=O)CCCCCCCCCCC` [Di(dodecanoyloxy)dipropylsilan], the “Wirkung gegen Angiosarkome” value in experiment [8] was “zeigen eine Wirkung”. Further, the “Wirkung auf Seminome” value in [9] was “zeigen eine Wirkung”. In addition, the “Wirkung gegen Hepatitis B-Viren” value in experiment [10] is recorded as “zeigen eine Wirkung”.

On to `CCCCCCCCCCC(=O)O[Si](CC)(CC)OC(=O)CCCCCCCCCC` [Si 4, Di (undecanoyloxy) diethylslan], for which the half-inhibitory concentration (IC50) in experiment [1] (setting [12]) turned out to be 100 µg/mL (≈ 219 µM); in experiment [2] (up to 500 µg/ml) it was 180 µg/mL (≈ 394 µM); in experiment [3] (setting [13]), 200 µg/mL (≈ 438 µM). For the same molecule, the “Wirkung gegen die Metastasierung von Plattenepihtelkarzinomen oder Plasmozytomen” value in experiment [4] was “zeigen eine Wirkung”.

As to `CCCCCCCCCC(=O)O[Si](CC)(CC)OC(=O)CCCCCCCCC` [Si 12, Di (decanoyloxy) diethylsilan], the IC50 turned out to be 140 µg/mL (≈ 327 µM) in experiment [1] (BXPC-3, read-out: IC50 BxPC3); 600 µg/mL (≈ 1400 µM) in experiment [2]; 300 µg/mL (≈ 700 µM) in experiment [3] (setting [11]). Also, the “Wirkung gegen die Metastasierung von Plattenepihtelkarzinomen oder Plasmozytomen” value in experiment [4] was “zeigen eine Wirkung”.

For `CCCCCCCCCCCCC(=O)O[Si](OC(=O)CCCCCCCCCCCC)(c1ccccc1)c1ccccc1` [Si 7, Di (tridecanoyloxy) diphenylslan], the results for the 50% inhibitory concentration (IC50) in experiment [1] (setting [12]), in experiment [2] (up to 500 µg/ml) and in [3] (setting [13]) were 60 µg/mL (≈ 98.5 µM), 80 µg/mL (≈ 131 µM) and 125 µg/mL (≈ 205 µM), respectively. Also, the “Wirkung auf Osteosarkome” value in experiment [5] is reported as “zeigen eine Wirkung”. Further, the “Wirkung gegen Rhino-Viren” value in experiment [6] is “zeigen eine Wirkung”.

As for `CCCCCCCCCCCCCCC(=O)O[Si](CCC)(CCC)OC(=O)CCCCCCCCCCCCCC` [Di(pentadecanoyloxy)dipropylsilan], the “Wirkung gegen Angiosarkome” value in experiment [8] is listed as “zeigen eine Wirkung”. Also, the “Wirkung auf Seminome” value in experiment [9] is recorded as “zeigen eine Wirkung”. For the same molecule, the “Wirkung gegen Hepatitis B-Viren” value in [10] is on record as “zeigen eine Wirkung”.

As for `CCCCCCCCCCC(=O)O[Si](C)(C)OC(=O)CCCCCCCCCC` [Si 2, Di (undecanoyloxy) dimethylsilan], the concentration for half-maximal inhibition (IC50) in experiment [1] (setting [12]) was 80 µg/mL (≈ 187 µM); in experiment [2] (up to 500 µg/ml), 125 µg/mL (≈ 292 µM); in [3] (setting [13]), 125 µg/mL (≈ 292 µM). Moreover, the “Wirkung gegen die Metastasierung von Plattenepihtelkarzinomen oder Plasmozytomen” value in experiment [4] is listed as “zeigen eine Wirkung”.

Take `CCCCCCCCCCCCCC(=O)O[Si](CCC)(CCC)OC(=O)CCCCCCCCCCCCC` [Di(tetradecanoyloxy)dipropylsilan]: the “Wirkung gegen Angiosarkome” value in experiment [8] is “zeigen eine Wirkung”. Further, the “Wirkung auf Seminome” value in experiment [9] was “zeigen eine Wirkung”. The “Wirkung gegen Hepatitis B-Viren” value in experiment [10] is on record as “zeigen eine Wirkung”.

With `CCCCCCCC(=O)O[Si](CC)(CC)OC(=O)CCCCCCC` [Di(octanoyloxy)diethylsilan], in [4], the “Wirkung gegen die Metastasierung von Plattenepihtelkarzinomen oder Plasmozytomen” value was “zeigen eine Wirkung”.

In the case of `CCCCCCCC/C=C\CCCCCCCC(=O)O[Si](OC(=O)CCCCCCC/C=C\CCCCCCCC)(c1ccccc1)c1ccccc1`, the “Wirkung auf Osteosarkome” value in experiment [5] is given as “zeigen eine Wirkung”. For the same molecule, the “Wirkung gegen Rhino-Viren” value in experiment [6] is on record as “zeigen eine Wirkung”.

Regarding `CCCCCCCCC(=O)O[Si](OC(=O)CCCCCCCC)(c1ccccc1)c1ccccc1` [Di(nonanoyloxy)diphenylsilan], in experiment [5], the “Wirkung auf Osteosarkome” value is “zeigen eine Wirkung”. For the same molecule, the “Wirkung gegen Rhino-Viren” value in experiment [6] is listed as “zeigen eine Wirkung”.
